From ChEMBL document CHEMBL1201862, “PubChem BioAssay data set” (2004)
Calls of active or inactive are those of the source.

Assays:
[1] = target: Platelet-activating factor acetylhydrolase 2, cytoplasmic (Mus musculus, UniProt Q8VDG7); assay: Late stage assay provider results from the probe development effort to identify inhibitors of PAFAH2: Fluorescence-based biochemical gel-based Activity-Based Protein Profiling (ABPP) IC50. [Related pubchem assays (depositor defined):AID492956, AID492969, AID493030]
Chain of Platelet-activating factor acetylhydrolase 2, cytoplasmic (Q8VDG7 whole entry): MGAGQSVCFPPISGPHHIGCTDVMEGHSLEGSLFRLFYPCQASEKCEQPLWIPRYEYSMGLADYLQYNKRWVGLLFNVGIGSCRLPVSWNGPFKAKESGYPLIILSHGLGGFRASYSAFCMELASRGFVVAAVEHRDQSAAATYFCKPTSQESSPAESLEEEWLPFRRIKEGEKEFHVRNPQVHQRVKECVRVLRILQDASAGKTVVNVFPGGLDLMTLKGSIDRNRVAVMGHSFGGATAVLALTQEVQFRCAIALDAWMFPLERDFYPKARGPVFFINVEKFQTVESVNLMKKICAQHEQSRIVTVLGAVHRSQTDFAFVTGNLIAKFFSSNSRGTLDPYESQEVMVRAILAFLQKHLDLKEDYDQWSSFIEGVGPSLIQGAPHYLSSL

INS1 [2] = assay: protection of INS-1E cells from cytokine death, dose response, ATP luminescence, dry powder (AID 488844); format: functional, cell-based; details: Rattus norvegicus
INS1 [3] = assay: inhibitors of cytokine-induced nitrite release, dose response, cell-based, Griess absorbance, INS-1E, dry powder, set 2 (AID 488868); format: functional; details: Rattus norvegicus
[4] = cytotoxicity toward DRD oncogenic fibroblasts, dose response, cell-based, non-viral oncogenic, luminescence (AID 1934); format: functional; details: Homo sapiens
BJ [5] = assay: cytotoxicity toward BJ-TERT-LT-ST fibroblasts, dose response, cell-based, RAS-independent, luminescence (AID 1935); format: functional; details: Homo sapiens;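 further: BJ fibroblasts immortalized with TERT plus LT and ST oncogenes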
BJ [6] = assay: cytotoxicity toward BJ-TERT fibroblasts, dose response, cell-based, RAS-independent, luminescence (AID 1933); format: functional; details: Homo sapiens
BJ [7] = assay: cells; format: functional, cell-based; details: Homo sapiens
BJ [8] = assay: cytotoxicity toward Ras-transformed BJeLR fibroblasts, dose response, cell-based, alamar blue fluorescence, cherrypicked samples (AID 2631); format: functional; details: Homo sapiens;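 further: confirmatory dose-response assay in RAS-dependent BJ fibroblasts engineered with TERT, LT and ST, with cytotoxicity read by fluorescence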
CHO = assay: cytotoxicity in TLR9-MyD88 CHO cells, dose response, cytotoxicity control for TLR9-MyD88 binding inhibitor project, cell-based, luminescence (AID 588339); format: functional, hamster; details: Cricetulus griseus;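 further: CHO cells stably coexpressing TLR9 and MyD88 fusions from primary screen; compound exposure lasted 48 hours before viability readout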
[9] = target: T1, Endoribonuclease toxin MazF (Escherichia coli K-12, UniProt P0AE70); assay: MazF toxin RNase activators, dose response, biochemical, fluorescence, single-stranded RNA substrate, uHTS hits (AID 588481); format: functional
T1 sequence (P0AE70 whole entry): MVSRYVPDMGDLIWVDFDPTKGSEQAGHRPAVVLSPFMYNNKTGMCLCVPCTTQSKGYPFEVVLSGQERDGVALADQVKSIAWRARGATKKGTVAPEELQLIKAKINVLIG

Beta Lactamase = Beta Lactamase (Pseudomonas aeruginosa, UniProt Q932Y6); assay: beta-lactamase reporter inhibitor potency, dose response, artefact control for TLR9-MyD88 binding inhibitor project, BLA reporter cells, FRET fluorescence (AID 588341); format: cell-based;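 further: cell based assay in CHO-K1 cells stably expressing beta-lactamase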
Chain of Beta Lactamase (Q932Y6 whole entry): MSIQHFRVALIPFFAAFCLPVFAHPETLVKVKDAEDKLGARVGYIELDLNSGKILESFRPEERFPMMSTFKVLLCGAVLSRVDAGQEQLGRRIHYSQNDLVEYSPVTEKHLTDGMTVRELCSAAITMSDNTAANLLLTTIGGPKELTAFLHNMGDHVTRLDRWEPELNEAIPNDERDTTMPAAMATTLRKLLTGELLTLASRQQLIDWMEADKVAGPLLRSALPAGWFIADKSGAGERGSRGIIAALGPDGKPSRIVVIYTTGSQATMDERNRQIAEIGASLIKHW

[10] = target: T1, Endoribonuclease toxin MazF; assay: fluorescent RNA oligo signal without MazF, dose response, counter-screen for MazEF activator project, biochemical, fluorescence, single-stranded RNase substrate (AID 588502); format: functional
[11] = inhibitors of HIV Env-driven cell fusion, dose response, cherry-pick (AID 652057); format: functional, cell-based
[12] = off-target signal loss in HeLa-CEM21 co-culture – HeLa F-luc CTL cells, cherry-picked, counter-screen for HIV-1 Env fusion inhibitor project, dose response (AID 652040); format: functional, cell-based;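 further: potency for signal decrease marking cytotoxic or nonspecific inhibition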
H4 [13] = assay: Inhibitors of Prion Protein 5' UTR mRNA Measured in Cell-Based System Using Plate Reader - 2078-01_Inhibitor_Dose_DryPowder_Activity. [Related pubchem assays (depositor defined):AID488894]; format: functional; details: Homo sapiens
Paired box protein Pax-8 = Paired box protein Pax-8 (Homo sapiens, UniProt Q06710); assay: inhibitors of PAX8-driven TPO luciferase reporter, dose response, RMG-I cells, cherry-pick (AID 687027); format: functional, cell-based;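 further: luciferase reporter driven by Pax8 target thyroperoxidase promoter measured by SteadyGlo luminescence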
Chain of Paired box protein Pax-8 (Q06710 whole entry): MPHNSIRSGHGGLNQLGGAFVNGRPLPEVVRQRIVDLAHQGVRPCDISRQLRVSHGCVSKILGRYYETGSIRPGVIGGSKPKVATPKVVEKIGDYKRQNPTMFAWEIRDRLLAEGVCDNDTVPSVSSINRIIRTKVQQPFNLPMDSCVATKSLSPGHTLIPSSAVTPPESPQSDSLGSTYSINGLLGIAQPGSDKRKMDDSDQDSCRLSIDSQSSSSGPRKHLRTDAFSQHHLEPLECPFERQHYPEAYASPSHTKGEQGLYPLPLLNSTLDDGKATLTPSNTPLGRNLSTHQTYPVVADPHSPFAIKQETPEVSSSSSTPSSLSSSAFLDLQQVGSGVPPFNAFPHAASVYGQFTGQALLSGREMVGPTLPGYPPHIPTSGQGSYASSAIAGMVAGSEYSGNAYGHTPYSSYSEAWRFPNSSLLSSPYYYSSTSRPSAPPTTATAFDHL

[14] = Luminescence-based counterscreen assay for KLF5 inhibitors: dose response cell-based high throughput screening assay to identify cytotoxic compounds using the IEC-6 intestinal epithelial cell line. [Related pubchem assays: 1700 (Primary screen.), 1834 (Confirmation screen.), 1858 (Summary AID.), 1905 (Counterscreen.)]; format: functional
H4 [15] = assay: Amyloid Precursor 5' UTR neuroblastoma cell reporter line Measured in Cell-Based System Using Plate Reader - 2078-04_Inhibitor_Dose_DryPowder_Activity. [Related pubchem assays (depositor defined):AID488894]; format: functional; details: Homo sapiens
H4 [16] = assay: inhibitors of control reporter signal in H4 cells – cell-based, plate reader, dry powder samples, counter-screen for prion reporter project, dose response (AID 540255); format: functional; details: Homo sapiens
[17] = cytotoxicity in HEK-293T NF-kB-Luc cells, dose response, cytotoxicity control for B/T-cell NF-kB inhibitor project, cell-based, uHTS hits (AID 489019); format: functional;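 further: IC50 reflects cytotoxicity as loss of cell viability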
[18] = ZM109 Env clade C HIV-1 fusion inhibitors, dose response, HeLa effector, CEM target cells, luciferase, cherry-pick (AID 652058); format: functional, cell-based
[19] = inhibitors of clade B AD8 Env fusion, dose response, cell-based, cherry-pick (AID 652062); format: functional;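 further: luciferase signal from cell-cell fusion driven by HIV-1 clade B AD8 Env; potency is for inhibitors of fusion seen as a drop in luminescence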
[20] = LGR2 antagonists, dose response, cell-based, HEK293, CRE-luciferase reporter, cherry pick, set 2 (AID 743343); format: functional;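 further: transfected cells were stimulated with diluted bursicon conditioned medium after compound addition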
[21] = MC4R antagonists, dose response, counter-screen for LGR2 antagonist project, cell-based, plate reader, cherry pick (AID 743444); format: functional;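 further: transfected HEK 293 cells stimulated with alpha-MSH peptide; potency of inhibitors of the alpha-MSH evoked signal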
Jurkat = assay: antigen receptor-induced NF-kB inhibitors, dose response, Jurkat, luciferase reporter, luminescence, B- and T-cell (AID 489004); format: functional, cell-based; details: Homo sapiens;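 further: NF-kB luciferase reporter Jurkat cells stimulated with PMA plus ionomycin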
[22] = target: Luciferin 4-monooxygenase (Photinus pyralis, UniProt P08659); assay: firefly luciferase enzyme inhibitors, dose response, biochemical, dry powder samples, plate reader (AID 588451)
Chain of Luciferin 4-monooxygenase (P08659 whole entry): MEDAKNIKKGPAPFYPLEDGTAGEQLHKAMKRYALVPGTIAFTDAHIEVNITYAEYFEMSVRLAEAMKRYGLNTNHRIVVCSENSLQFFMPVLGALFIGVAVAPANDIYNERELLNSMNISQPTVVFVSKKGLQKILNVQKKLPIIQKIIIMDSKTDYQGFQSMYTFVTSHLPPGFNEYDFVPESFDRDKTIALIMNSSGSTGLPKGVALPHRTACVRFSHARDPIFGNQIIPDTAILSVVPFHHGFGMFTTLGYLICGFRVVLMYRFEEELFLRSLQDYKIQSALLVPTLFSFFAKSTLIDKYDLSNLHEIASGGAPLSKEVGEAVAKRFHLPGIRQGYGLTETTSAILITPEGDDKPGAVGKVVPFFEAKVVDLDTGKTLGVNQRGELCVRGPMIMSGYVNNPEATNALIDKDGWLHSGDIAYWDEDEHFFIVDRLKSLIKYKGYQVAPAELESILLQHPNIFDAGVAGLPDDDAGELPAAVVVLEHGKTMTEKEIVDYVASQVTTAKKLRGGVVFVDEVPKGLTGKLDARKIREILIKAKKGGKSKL

[23] = target: Dual specificity tyrosine-phosphorylation-regulated kinase 1A (Rattus norvegicus, UniProt Q63470); format: biochemical, Homo sapiens
[24] = target: Glycogen synthase kinase-3 beta (Homo sapiens, UniProt P49841); assay: Inhibition of Human GSK-3 beta Activity Measured in Biochemical System Using Microfluidics - 2063-05_Inhibitor_Dose_DryPowder_Activity_Set2. [Related pubchem assays (depositor defined):AID2709]
[25] = target: Glycogen synthase kinase-3 alpha (Homo sapiens, UniProt P49840); assay: Inhibition of Human GSK-3 alpha Activity Measured in Biochemical System Using Microfluidics - 2063-06_Inhibitor_Dose_DryPowder_Activity_Set2. [Related pubchem assays (depositor defined):AID2709]
Chain of Glycogen synthase kinase-3 alpha (P49840 whole entry): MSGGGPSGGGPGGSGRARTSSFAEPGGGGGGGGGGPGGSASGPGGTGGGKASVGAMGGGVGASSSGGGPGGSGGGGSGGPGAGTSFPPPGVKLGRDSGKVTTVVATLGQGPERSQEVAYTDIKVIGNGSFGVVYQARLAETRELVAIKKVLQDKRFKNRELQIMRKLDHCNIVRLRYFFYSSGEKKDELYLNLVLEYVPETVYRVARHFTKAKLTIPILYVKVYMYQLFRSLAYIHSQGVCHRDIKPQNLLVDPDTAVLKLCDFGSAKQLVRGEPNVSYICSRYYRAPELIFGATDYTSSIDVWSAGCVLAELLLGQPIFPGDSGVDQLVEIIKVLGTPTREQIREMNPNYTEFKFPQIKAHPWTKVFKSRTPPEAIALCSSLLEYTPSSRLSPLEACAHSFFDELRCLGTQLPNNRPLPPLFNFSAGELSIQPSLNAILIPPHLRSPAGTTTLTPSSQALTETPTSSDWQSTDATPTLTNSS

[26] = nonselective inhibitors of cellular cAMP signaling, dose response, counter-screen for MC4R biased antagonist project, cell-based, TR-FRET cAMP detection (AID 602305); format: functional;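 further: U2OS cells stimulated with forskolin near its EC80 as the cAMP inducer; potency is for inhibition of forskolin-stimulated cAMP signaling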
Melanocortin receptor 4 = Melanocortin receptor 4 (Homo sapiens, UniProt P32245); assay: MC4R antagonist potency on cAMP, dose response, cell-based, TR-FRET, biased antagonists (AID 602298); format: functional;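 further: antagonist potency against agonist-stimulated cAMP production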
Chain of Melanocortin receptor 4 (P32245 whole entry): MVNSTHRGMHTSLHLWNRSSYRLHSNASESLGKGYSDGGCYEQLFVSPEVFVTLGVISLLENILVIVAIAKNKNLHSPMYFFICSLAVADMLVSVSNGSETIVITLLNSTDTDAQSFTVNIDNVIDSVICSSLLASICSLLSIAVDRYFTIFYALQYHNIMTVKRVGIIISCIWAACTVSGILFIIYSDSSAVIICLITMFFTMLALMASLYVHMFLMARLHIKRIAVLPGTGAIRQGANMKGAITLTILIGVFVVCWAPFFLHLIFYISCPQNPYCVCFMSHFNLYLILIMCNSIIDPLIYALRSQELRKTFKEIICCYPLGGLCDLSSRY

[27] = target: Dual specificity protein kinase CLK1 (Homo sapiens, UniProt P49759); assay: CLK1 kinase inhibitors, off-target check, dose response, selectivity assay for Dyrk1A inhibitor project, biochemical, cherry-picked samples (AID 588811)
Chain of Dual specificity protein kinase CLK1 (P49759 whole entry): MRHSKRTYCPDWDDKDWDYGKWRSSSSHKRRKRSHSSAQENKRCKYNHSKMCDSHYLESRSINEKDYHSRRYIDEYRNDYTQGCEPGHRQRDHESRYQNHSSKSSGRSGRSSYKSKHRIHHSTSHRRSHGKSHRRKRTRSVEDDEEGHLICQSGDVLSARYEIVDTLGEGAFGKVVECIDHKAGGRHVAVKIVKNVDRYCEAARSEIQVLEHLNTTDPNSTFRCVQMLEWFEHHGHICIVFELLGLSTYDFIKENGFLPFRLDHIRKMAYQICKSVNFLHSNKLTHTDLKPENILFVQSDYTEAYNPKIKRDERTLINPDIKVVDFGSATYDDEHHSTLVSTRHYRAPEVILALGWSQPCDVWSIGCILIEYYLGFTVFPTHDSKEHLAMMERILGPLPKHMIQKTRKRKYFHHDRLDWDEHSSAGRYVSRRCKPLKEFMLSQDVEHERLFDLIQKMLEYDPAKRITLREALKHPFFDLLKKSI

[28] = growth suppression of beta-catenin-knockout colon cells, dose response, cell-based, HCT116, human colon tumor (AID 1045); format: functional;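 further: HCT116 colon tumor cells with beta catenin knocked out; cells exposed to compound for 60 hours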
[29] = growth suppression of PTEN-null colon cells, dose response, cell-based, HCT116 PTEN knockout (AID 1047); format: functional;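 further: HCT116 colon tumor cells with PTEN knocked out; cells exposed to compound for 60 hours before readout; potency for loss of cell viability measured by luminescence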
[30] = THP-1 cell cytotoxicity, dose response, cytotoxicity control, set 3 (AID 504852); format: functional; details: Mycobacterium tuberculosis
[31] = THP-1 cell cytotoxicity, cytotoxicity control, set 4 (AID 504911); format: functional; details: Mycobacterium tuberculosis
[32] = target: Phosphorylase b kinase gamma catalytic chain, liver/testis isoform (Homo sapiens, UniProt P15735); format: functional;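 further: PHKG2 measured as one member of a kinome-wide kinase panel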
Chain of Phosphorylase b kinase gamma catalytic chain, liver/testis isoform (P15735 whole entry, canonical isoform): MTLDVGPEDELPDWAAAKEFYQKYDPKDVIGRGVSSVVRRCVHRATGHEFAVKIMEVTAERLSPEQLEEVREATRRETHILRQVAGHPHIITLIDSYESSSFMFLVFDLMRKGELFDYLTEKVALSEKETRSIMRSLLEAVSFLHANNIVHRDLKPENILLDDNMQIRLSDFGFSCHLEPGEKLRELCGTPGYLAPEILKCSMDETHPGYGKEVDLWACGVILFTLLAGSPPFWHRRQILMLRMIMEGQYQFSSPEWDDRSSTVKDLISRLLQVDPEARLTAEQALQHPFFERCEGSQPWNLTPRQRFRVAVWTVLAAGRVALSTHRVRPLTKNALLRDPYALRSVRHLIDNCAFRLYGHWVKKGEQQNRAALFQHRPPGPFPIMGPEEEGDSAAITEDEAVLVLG

[33] = target: Benomyl/methotrexate resistance protein (Candida albicans, UniProt P28873); assay: CaMdr1 efflux pump inhibitor potency, dose response, singleplex, Cherry Pick1 hits (AID 588608); format: functional
[34] = target: Multidrug resistance protein CDR1 (Candida albicans, UniProt P43071); assay: CaCdr1 efflux pump inhibitor potency, dose response, singleplex, Cherry Pick2 set (AID 623996); format: functional; details: read-out: EC50_MICROM
Chain of Multidrug resistance protein CDR1 (P43071 whole entry, looked up): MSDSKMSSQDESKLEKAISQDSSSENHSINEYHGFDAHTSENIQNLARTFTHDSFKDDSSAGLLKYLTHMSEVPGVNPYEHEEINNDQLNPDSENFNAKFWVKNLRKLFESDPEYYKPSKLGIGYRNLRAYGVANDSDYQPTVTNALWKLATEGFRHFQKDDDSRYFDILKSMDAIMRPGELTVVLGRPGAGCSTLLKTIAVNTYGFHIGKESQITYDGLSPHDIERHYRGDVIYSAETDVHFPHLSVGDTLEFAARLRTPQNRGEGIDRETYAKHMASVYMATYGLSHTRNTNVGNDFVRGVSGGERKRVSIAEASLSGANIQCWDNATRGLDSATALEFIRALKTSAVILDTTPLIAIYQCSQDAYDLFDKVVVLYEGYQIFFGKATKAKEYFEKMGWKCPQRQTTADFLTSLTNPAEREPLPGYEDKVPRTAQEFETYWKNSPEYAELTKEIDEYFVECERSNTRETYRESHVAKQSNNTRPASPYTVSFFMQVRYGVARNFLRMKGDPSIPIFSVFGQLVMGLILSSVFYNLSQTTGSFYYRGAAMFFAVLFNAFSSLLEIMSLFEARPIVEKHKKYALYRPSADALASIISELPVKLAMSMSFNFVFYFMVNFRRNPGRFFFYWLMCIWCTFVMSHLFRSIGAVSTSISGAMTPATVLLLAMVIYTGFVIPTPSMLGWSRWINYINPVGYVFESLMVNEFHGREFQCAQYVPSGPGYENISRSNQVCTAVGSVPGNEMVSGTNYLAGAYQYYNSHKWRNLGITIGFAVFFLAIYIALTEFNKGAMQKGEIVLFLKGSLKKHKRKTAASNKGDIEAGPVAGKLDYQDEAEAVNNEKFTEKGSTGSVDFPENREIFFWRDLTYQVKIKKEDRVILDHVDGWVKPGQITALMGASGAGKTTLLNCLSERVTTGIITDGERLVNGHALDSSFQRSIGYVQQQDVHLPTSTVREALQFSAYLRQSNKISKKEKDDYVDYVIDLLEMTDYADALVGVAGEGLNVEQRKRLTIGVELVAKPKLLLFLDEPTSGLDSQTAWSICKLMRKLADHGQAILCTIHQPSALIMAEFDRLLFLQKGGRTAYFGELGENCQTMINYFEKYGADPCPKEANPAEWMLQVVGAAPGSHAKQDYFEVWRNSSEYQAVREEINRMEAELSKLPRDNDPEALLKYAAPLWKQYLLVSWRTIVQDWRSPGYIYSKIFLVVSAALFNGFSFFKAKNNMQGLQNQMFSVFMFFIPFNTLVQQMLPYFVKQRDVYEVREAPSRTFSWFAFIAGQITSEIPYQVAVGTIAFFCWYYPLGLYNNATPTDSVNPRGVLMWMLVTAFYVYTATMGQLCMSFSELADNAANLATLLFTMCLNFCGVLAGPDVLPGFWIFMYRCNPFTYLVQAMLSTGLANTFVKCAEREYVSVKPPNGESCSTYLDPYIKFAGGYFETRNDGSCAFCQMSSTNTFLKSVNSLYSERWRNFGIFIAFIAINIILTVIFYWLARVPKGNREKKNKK

[35] = target: T2, High affinity choline transporter 1 (Homo sapiens, UniProt Q9GZV3); assay: CHT inhibitors, dose response, cell-based, 5-point CRC, membrane potential dye (AID 504840); format: functional
T2 sequence (Q9GZV3 whole entry): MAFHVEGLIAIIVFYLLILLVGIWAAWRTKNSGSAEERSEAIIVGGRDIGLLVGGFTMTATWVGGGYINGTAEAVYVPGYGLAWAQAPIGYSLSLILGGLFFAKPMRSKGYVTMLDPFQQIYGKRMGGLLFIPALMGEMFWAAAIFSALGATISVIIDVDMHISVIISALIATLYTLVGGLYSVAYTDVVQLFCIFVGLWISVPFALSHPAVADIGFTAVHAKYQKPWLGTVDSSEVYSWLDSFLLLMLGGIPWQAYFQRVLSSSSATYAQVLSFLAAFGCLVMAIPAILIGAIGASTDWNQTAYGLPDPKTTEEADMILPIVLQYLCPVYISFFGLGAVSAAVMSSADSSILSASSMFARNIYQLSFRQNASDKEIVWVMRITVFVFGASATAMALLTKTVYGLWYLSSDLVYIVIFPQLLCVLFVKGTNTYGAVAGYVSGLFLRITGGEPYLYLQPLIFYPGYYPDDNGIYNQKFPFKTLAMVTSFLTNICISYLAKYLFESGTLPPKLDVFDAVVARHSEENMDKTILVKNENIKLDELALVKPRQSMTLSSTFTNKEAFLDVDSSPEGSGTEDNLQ

[36] = target: T2, High affinity choline transporter 1; assay: CHT inhibitors, dose response, cell-based, 10-point CRC, membrane potential dye (AID 588401); format: functional;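 further: membrane potential dye fluorescence of choline-evoked depolarization via CHT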

O=C(N1CCCC1)n1ncc(-c2ccc(Oc3ccccc3)cc2)n1
IC50 [1]: 0.002 µM (active)

C[C@@H]1CN([C@H](C)CO)C(=O)c2cccc(NC(=O)Nc3ccccc3)c2O[C@H]1CN(C)S(=O)(=O)c1ccc(Cl)cc1
AC50 (INS1 [2]): 22.4 µM (active) | AC50 (INS1 [3]): 41.6 µM (active)

Cc1nc(=O)c2cc(CN(C)c3ccc(C(=O)N[C@@H](CCC(=O)O)C(=O)O)s3)ccc2[nH]1 [RALTITREXED]
EC50 [4]: > 150 µM (inconclusive) | EC50 (BJ [5]): > 150 µM (inconclusive) | EC50 (BJ [6]): > 150 µM (not active) | EC50 (BJ [7]): 0.192 µM (inconclusive) | EC50 (BJ [8]): > 133 µM (inactive)

Cn1cccc1/C=C1\CCC/C(=C\c2cccn2C)C1=O
IC50 (CHO): > 49.8 µM (inactive) | EC50 [9]: > 99 µM (inactive) | IC50 (Beta Lactamase): 10.9 µM (inactive) | EC50 [10]: 23.9 µM (inactive)

O=C(Nc1cccc(C(=O)O)c1)Nc1ccc2c(c1)OCO2
AC50 [11]: 0.605 µM (active) | AC50 [12]: 1.81 µM (active) | AC50 (H4 [13]): 0.333 µM (active) | AC50 (Paired box protein Pax-8): 5.13 µM (active) | IC50 [14]: > 39.8 µM (not active) | AC50 (H4 [15]): 0.145 µM (active) | AC50 (H4 [16]): 1.97 µM (active) | IC50 [17]: > 80 µM (inactive) | AC50 [18]: 5.37 µM (active) | AC50 [19]: 2.74 µM (active) | AC50 [20]: 1.53 µM (active) | AC50 [21]: 1.47 µM (active) | IC50 (Jurkat): 1.77 µM (active) | AC50 [22]: 3.34 µM (active)

CCOC(=O)c1ccc2ncc(C(=O)OCC)c(Nc3ccc(N4CCOCC4)cc3)c2c1
AC50 [23]: 0.257 µM (active) | AC50 [24]: 1.16 µM (active) | AC50 [25]: 3.56 µM (active) | IC50 [26]: > 64.6 µM (inactive) | IC50 (Melanocortin receptor 4): 8.67 µM (active) | AC50 [27]: 0.227 µM (active) | EC50 [28]: 21.4 µM (active) | EC50 [29]: 18.5 µM (active)

O=C(CSc1ccccn1)NC1CCCCC1
CC50 [30]: > 100 µM (active) | CC50 [31]: > 100 µM (active)

NC(=O)c1cccc2[nH]c(-c3ccncc3)nc12
Ki [32]: 1 µM (active)

COc1ccc(S(=O)(=O)N(C)C[C@H]2Oc3c(NC(=O)NC4CCCCC4)cccc3C(=O)N([C@H](C)CO)C[C@@H]2C)cc1
EC50 [33]: 10.1 µM (active) | EC50 [34]: 10.4 µM (active)

CCc1cccc(C)c1NC(=O)c1ccc(CN2CCc3ccccc3C2)cc1
IC50 [35]: 3.88 µM (active) | IC50 [36]: 7.94 µM (active)
